{
  "source": "patent US20220409595A1",
  "about": "“GLUCOSYLCERAMIDE SYNTHASE INHIBITORS” (GENZYME CORPORATION, priority 2013, published 2022)",
  "key": {"[1]": {"tested_on": "Fabry patients", "conditions": "cited from earlier work"}, "[2]": {"tested_on": "Fabry iPSC-derived cardiomyocytes", "experiment": "Immunocytochemistry of GL-3 and Lamp2 in Fabry iPSC-derived cardiomyocytes", "assay_type": "cell-based, human", "method": "It was next determined whether the compound could reduce levels of accumulated GL-3 when significant GL-3 accumulation is present at the start of treatment (FIG. 4). Twenty eight post-start of differentiation, beating EBs were treated with 1 μM of GCS452 for 15 days. The EBs were dissociated and plated at the end of the treatment, and ICC analysis was performed. […] GL-3 reduction in treated Fabry EBs was confirmed by mass spectrometry. While there was a 13 to 18 fold increase of GL-3 in untreated FD cardiomyocytes compared to WT, GL-3 levels increased by 4.5 to 5.5 fold in treated FD cardiomyocytes after 15 days of treatment with GCS452. This corresponds to a 2.3 to 2.8 fold reduction in accumulated GL-3 as compared to GL-3 levels at the start point (TO) of treatment (FIG. 5B). In parallel, it was investigated whether agalsidase beta could clear accumulated GL-3 in one month old Fabry cardiomyocytes. EBs were treated with 0.3p g/mL of agalsidase beta for 5 days and GL-3 content was analyzed as described for GCS452. GL-3 vacuoles were not detected in treated Fabry cardiomyocytes using ICC (FIG. 5C). […] One month old beating EBs were harvested and dissociated by using the embryoid body dissociation kit (Miltenyi Biotech, Bergisch Gladbach). Dissociated cells were plated on matrigel coated dishes. Five days latter, cells were fixed using 8% de formaldehyde solution (Sigma-Aldrich, St. Louis, Mo.) in DPBS (Gibco, Carlsbad, Calif.) and permeabilized in 0.05% Tween 20 (Sigma Life Science, St. Louis, Mo.) 20 minutes at room temperature. The samples were incubated with the primary antibodies over night at 4° C. Secondary antibodies were applied one hour at room temperature. Primary antibodies used were mouse monoclonal IgG1 directed against—Actinin, at the final dilution 1/1500 (Sigma Life Science, St. Louis, Mo.), rat monoclonal IgM directed against GL-3/CD77, at the final dilution 1/300 (Abcam, Cambridge, US) and mouse monoclonal IgG1 directed against LAMP2, at the final dilution 1/500 (Santa Cruz Biotechnology, Dallas, Tex.). The secondary antibodies were Alexa Fluor 488 goat anti-mouse IgG (Molecular Probes, Carlsbad, Calif.) Alexa Fluor 555 goat anti-mouse IgG (Molecular Probes, Carlsbad, Calif.) and Alexa Fluor 488 goat anti-rat IgG (Molecular Probes, Carlsbad, Calif.). They were used at the final dilution 1/1000."}, "[3]": {"tested_on": "Fabry iPSC-derived cardiomyocytes", "experiment": "GL-3 content of Fabry iPSC-derived cardiomyocytes (beating EBs) by mass spectrometry", "assay_type": "cell-based, human", "method": "GCS452 [(S)-quinuclidin-3-yl (2-(2-(4-fluorophenyl)thiazol-4-yl)propan-2-yl) carbamate], a selective glucosylceramide synthase inhibitor, was tested to evaluate its potential to prevent GL-3 accumulation in Fabry iPSC-derived cardiomyocytes. EBs were treated eighteen days after induction of cardiac differentiation. At this time point, accumulation was low in the FD cardiomyocytes (FIG. 4). The FD and WT cardiomyocytes were treated with 1 μM GCS452 for 15 days.\nIt was next determined whether the compound could reduce levels of accumulated GL-3 when significant GL-3 accumulation is present at the start of treatment (FIG. 4). […]\nIn parallel, it was investigated whether agalsidase beta could clear accumulated GL-3 in one month old Fabry cardiomyocytes. EBs were treated with 0.3p g/mL of agalsidase beta for 5 days and GL-3 content was analyzed as described for GCS452. GL-3 vacuoles were not detected in treated Fabry cardiomyocytes using ICC (FIG. 5C). […]\nPellets containing EBs were extracted in a solution of acetonitrile:methanol (1:1). The extracts were directly injected onto a 2.1×100 mm, 1.7 μM BEH Hilic column (Waters), resolved with a Waters Acquity UPLC system, and analyzed for C16, C18, C20, C22, C23, C24, C24:1, C24(OH), and C24:1(OH) GL-3 isoforms and lyso-GL-3 in multiple-reaction monitoring (MRM) and positive-ion mode with an API-4000 mass spectrometer (ABSciex, Framingham, Mass.). […]"}, "[4]": {"tested_on": "K14 mouse model of type 2 Gaucher disease", "conditions": "cited from earlier work"}, "[5]": {"conditions": "3 μg/mL, one month old Fabry iPSC-derived cardiomyocytes, end of treatment"}, "[6]": {"conditions": "0.3p g/mL for 5 days, one month old Fabry cardiomyocytes"}, "[7]": {"conditions": "1 μM for 15 days, treatment from day 28"}},
  "note": "Entries after “also recorded” stand apart in the source; their conditions may differ. Where two headings read alike, the source gives them in different places.",
  "data": [
    {"molecule": "agalsidase beta: recombinant α-GalA, enzyme replacement therapy approved for the treatment of Fabry disease", "values": [
      {"measurement": "GL-3 deposits / accumulation in cardiomyocytes", "setting": "[1]; Fabry patients, cardiac biopsies, after 5 and 12 months of treatment", "result": "not reduced; also recorded: no effect"},
      {"measurement": "GL-3 deposits in capillary endothelium / heart microvasculature", "setting": "[1]; Fabry patients", "result": "effectively clears"},
      {"measurement": "GL-3 deposits in capillary endothelium / heart microvasculature", "setting": "[1]; Fabry patients, listed as Agalsidase beta", "result": "consistently clear"},
      {"measurement": "left ventricular mass", "setting": "[1]; treated Fabry patients", "result": "Modest reductions"},
      {"measurement": "GL-3 content (ICC), FIG. 5C legend", "setting": "[2]; [5]", "result": "not or was very slightly detectable"},
      {"measurement": "number of Lamp2 vacuoles and intensity of the signal (ICC), FIG. 5C legend", "setting": "[2]; [5]", "result": "reduced"},
      {"measurement": "GL-3 vacuoles (ICC)", "setting": "[2]; [6]", "result": "not detected"},
      {"measurement": "GL-3 clearance in Fabry cardiomyocytes", "setting": "[3]; [6]", "result": "Complete clearance; also recorded: clearance of GL-3"}
    ]},
    {"molecule": "CC(C)(NC(=O)OC1CN2CCC1CC2)c1cccc(-c2ccc(F)cc2)c1", "note": "(centres unmarked) [Gz161, Quinuclidin-3-yl (2-(4′-fluoro-[1,1′-biphenyl]-3-yl)propan-2-yl)carbamate]", "values": [
      {"measurement": "brain neuropathology", "setting": "[4]", "result": "reduced"},
      {"measurement": "lifespan", "setting": "[4]", "result": "extended"},
      {"measurement": "brain GluCer and GluSph", "setting": "[4]; see Examples 122-125 of WO2012/129084", "result": "reduce"}
    ]},
    {"molecule": "CC(C)(NC(=O)O[C@@H]1CN2CCC1CC2)c1csc(-c2ccc(F)cc2)n1", "note": "[GCS452, (S)-quinuclidin-3-yl (2-(2-(4-fluorophenyl)thiazol-4-yl)propan-2-yl) carbamate]", "values": [
      {"measurement": "GL-3 labeling (ICC)", "setting": "[2]; [7]", "result": "not or was very slightly detectable; also recorded: significant reduction"},
      {"measurement": "Lamp2 signal intensity / number of Lamp2 vacuoles (ICC)", "setting": "[2]; [7]", "result": "reduced; also recorded: concomitant decrease"},
      {"measurement": "GL-3 levels / accumulation in treated FD cardiomyocytes (prevention)", "setting": "[3]; 1 μM for 15 days, treatment from day 18 after induction of cardiac differentiation", "result": "close to the physiological levels of WT untreated cells"}
    ]}
  ]
}
